# Laboratory results from patent US5064947A (priority 1990, dated 1991).
# Where two headings read alike, the source gives them in different places.
# Legend:
# adenosine A-2 receptors = biological target: T1, adenosine A-2 receptors (Rattus norvegicus, UniProt P30543); assay: Affinity for brain adenosine A-2 receptors ([3H]NECA displacement, rat brain striatum membranes); assay type: binding
# T1 construct: from tissue; host or cells: striatal membranes of young male rats (C-D strain, from Charles River)
# T1 sequence (P30543 whole entry): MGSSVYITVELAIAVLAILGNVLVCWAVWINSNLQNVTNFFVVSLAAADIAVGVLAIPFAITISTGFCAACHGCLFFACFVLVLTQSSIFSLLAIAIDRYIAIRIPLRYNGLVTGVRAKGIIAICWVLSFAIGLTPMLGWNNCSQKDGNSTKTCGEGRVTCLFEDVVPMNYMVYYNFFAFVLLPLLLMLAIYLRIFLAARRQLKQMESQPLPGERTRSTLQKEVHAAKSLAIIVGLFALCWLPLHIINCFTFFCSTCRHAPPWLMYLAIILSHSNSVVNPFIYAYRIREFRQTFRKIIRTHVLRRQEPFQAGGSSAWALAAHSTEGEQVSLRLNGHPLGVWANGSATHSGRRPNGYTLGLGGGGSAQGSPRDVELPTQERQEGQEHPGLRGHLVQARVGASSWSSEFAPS
# Method: The pellet is finally resuspended in 40 vol. of 50mM Tris-HCl (pH 7.7) per gram of original wet weight of tissue.
# Incubations are carried out at 25° C. for 60 minutes. Each tube is filtered through GF/B glass fiber filters using a vacuum. The filters are rinsed two times with 5 ml of the ice-cold buffer. […] The filters are counted by liquid scintillation spectrometry.
# Specific binding of [3H]NECA is measured as the excess over blanks run in the presence of 100 μM 2-chloroadenosine. […] Specific binding to membranes is about 50% of the total bound.
# A-2 receptors = conditions: cited from earlier work
# [1] = in vivo; cited from earlier work
# A-1 receptors = conditions: cited from earlier work
# Adenosine A-1 receptor = biological target: T2, Adenosine A-1 receptor (Rattus norvegicus, UniProt P25099)
# T2 sequence (P25099 1-326): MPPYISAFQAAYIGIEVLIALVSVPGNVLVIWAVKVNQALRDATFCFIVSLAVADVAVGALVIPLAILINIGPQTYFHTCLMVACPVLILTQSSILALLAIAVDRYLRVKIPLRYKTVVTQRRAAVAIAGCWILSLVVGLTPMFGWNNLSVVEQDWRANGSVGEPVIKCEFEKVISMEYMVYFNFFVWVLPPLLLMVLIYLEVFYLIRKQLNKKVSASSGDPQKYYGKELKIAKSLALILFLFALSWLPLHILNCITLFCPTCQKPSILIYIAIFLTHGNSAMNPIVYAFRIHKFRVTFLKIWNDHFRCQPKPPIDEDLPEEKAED
# [2] = ratio of A-2 Ki to A-1 Ki (selectivity)
compound,measurement,setting,value
"C1=Nc2c(ncn2-c2ccccc2)C2=N[C@H](Cc3ccccc3)CN12 [Compound 6, (R)-7,8-dihydro-3-phenyl-8-(phenylmethyl)-3H-diimidazo[1,2-c:4',5'-e]pyrimidine]",A-2 Ki/A-1 Ki,adenosine A-2 receptors,16.40
"OC[C@H]1O[C@@H](n2cnc3c2N=CN2C[C@H](Cc4ccccc4)N=C32)[C@H](O)[C@@H]1O [Compound 13, (S)-7,8-dihydro-3-(β-D-ribofuranosyl)-8-(phenylmethyl)-3H-diimidazo[1,2-c:4',5'-e]pyrimidine]",A-2 Ki/A-1 Ki,adenosine A-2 receptors,1.70
"OC[C@H]1O[C@@H](n2cnc3c2N=CN2C[C@@H](Cc4ccccc4)N=C32)[C@H](O)[C@@H]1O [Compound 14, (R)-7,8-dihydro-3-(β-D-ribofuranosyl)-8-(phenylmethyl)-3H-diimidazo[1,2-c:4',5'-e]pyrimidine]",A-2 Ki/A-1 Ki,adenosine A-2 receptors,5.50
"C1=Nc2c(cnn2-c2ccccc2)C2=N[C@H](Cc3ccccc3)CN12 [Compound 3, (R)-2,7-dihydro-7-phenyl-2-(phenylmethyl)-3H-imidazo[1,2-c]pyrazolo[4,3-e]pyrimidine]",A-2 Ki/A-1 Ki,adenosine A-2 receptors; [2],13.20
"CCCOC1=Nc2c(cnn2-c2ccccc2)C2=N[C@@H](Cc3ccccc3)CN12 [Compound 2, (S)-2,7-dihydro-7-phenyl-2-(phenylmethyl)-5-propoxy-3H-imidazo[1,2-c]pyrazolo[4,3-e]pyrimidine]",A-2 Ki/A-1 Ki,adenosine A-2 receptors; [2],0.18
"CCNC(=O)[C@H]1O[C@@H](n2cnc3c(N)ncnc32)[C@H](O)[C@@H]1O [NECA, N-5'-ethylcarboxamidoadenosine]",order of potency at A-2 receptors,A-2 receptors,NECA>2-chloroadenosine>R-PIA>CHA
Nc1nc(Cl)nc2c1ncn2[C@@H]1O[C@H](CO)[C@@H](O)[C@H]1O [2-chloroadenosine],order of potency at A-2 receptors,A-2 receptors,NECA>2-chloroadenosine>R-PIA>CHA
"CCCn1c(=O)c2[nH]c(-c3ccc(OCC(=O)NCCN)cc3)nc2n(CCC)c1=O [XAC, amino congener of 8-phenyl-1,3-dipropyl-xanthine]",antagonizing the effects of adenosine analogs on heart rate versus blood pressure,[1],much more potent in antagonizing the effects of adenosine analogs on heart rate than on blood pressure
same,higher affinity for A-1 adenosine receptors vs A-2,A-1 receptors; A-1 brain membranes versus A-2 brain slice assay,40 fold
"CCCn1c(=O)c2[nH]c(-c3ccc(OCC(=O)O)cc3)nc2n(CCC)c1=O [XCC, carboxylic acid congener of 8-phenyl-1,3-dipropyl-xanthine]",adenosine receptor selectivity,"A-1 receptors; A-1 vs A-2, in vitro",non-selective
"CCCOC1=Nc2c(ncn2-c2ccccc2)C2=N[C@@H](Cc3ccccc3)CN12 [Compound 12, (S)-7,8-dihydro-3-phenyl-8-(phenylmethyl)-5-propoxy-3H-diimidazo[1,2-c:4',5'-e]pyrimidine]",Ki,Adenosine A-1 receptor,9 µM
same,Ki,"adenosine A-2 receptors; [3H]NECA, rat brain striatum membranes, 25° C., 60 minutes, read-out: A-2 Receptor Ki",1.6 µM
same,A-2 Ki/A-1 Ki,adenosine A-2 receptors; [2],0.18
"CCCOC1=Nc2c(cnn2-c2ccccc2)C2=N[C@H](C)[C@@H](c3ccccc3)N12 [Compound 7, (2R-trans)-2,7-dihydro-2-methyl-3,7-diphenyl-5-propoxy-3H-Imidazo[1,2-c]pyrazolo[4,3-e]pyrimidine]",A-2 Ki/A-1 Ki,adenosine A-2 receptors; [2],1.17
